Patent publication US20060084135A1, “Compositions for manipulating the lifespan and stress response of cells and organisms” (priority 2003, published 2006)
Where “and” joins values, the source holds several entries; their conditions need not be identical. Identical values can stand only once. Like-named read-outs stand apart in the source and are kept apart here. One block for each molecule: values may come before it.

Tests used:
recombinant human SIRT1 = target: T1, recombinant human SIRT1 (Homo sapiens, UniProt Q96EB6); test: SIRT1 fluorescent deacetylation assay (p53-382 acetylated peptide substrate); assay type: biochemical
T1 sequence (Q96EB6 1-747): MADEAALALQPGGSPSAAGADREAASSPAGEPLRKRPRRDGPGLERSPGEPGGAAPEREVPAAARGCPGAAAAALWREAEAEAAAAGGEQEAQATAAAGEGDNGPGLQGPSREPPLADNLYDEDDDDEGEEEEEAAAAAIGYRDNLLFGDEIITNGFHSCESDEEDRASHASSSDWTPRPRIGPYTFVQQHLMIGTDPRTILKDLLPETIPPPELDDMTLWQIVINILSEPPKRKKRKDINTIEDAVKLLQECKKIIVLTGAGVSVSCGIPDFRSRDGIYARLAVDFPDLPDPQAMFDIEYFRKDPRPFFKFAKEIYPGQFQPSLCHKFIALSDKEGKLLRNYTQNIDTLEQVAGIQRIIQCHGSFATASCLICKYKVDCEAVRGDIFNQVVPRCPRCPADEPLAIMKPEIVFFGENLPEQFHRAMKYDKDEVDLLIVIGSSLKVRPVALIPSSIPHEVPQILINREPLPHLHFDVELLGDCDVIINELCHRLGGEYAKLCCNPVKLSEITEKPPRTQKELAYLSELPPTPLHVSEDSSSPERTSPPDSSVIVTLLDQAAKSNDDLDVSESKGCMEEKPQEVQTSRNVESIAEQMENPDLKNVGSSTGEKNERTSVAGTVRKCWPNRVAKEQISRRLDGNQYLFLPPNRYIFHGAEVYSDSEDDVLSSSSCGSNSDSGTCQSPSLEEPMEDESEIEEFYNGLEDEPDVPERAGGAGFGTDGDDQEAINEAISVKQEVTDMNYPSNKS

[1] = Stability in solution (decay of SIRT1 fold-stimulation of aged stock); assay type: physicochemical; conditions: ethanol stock solution; ethanol stock 2.5 mM, room temperature, glass vials, nitrogen; assayed at 50 μM; read-out: Stability in Solution t1/2 (converted)
From the text: The fold-stimulation (ratio to control) obtained with a compound diluted from an aged stock solution was compared to an identical dilution from a stock solution freshly prepared from the solid compound. “t1/2” is defined as the time required for the SIRT1 fold-stimulation of the compound from the aged solution to decay to one-half of that obtained from a freshly prepared solution. […] Stocks were aged by storage at room […] temperature, in glass vials, under a nitrogen atmosphere.

S. cerevisiae = test: Yeast replicative lifespan; assay type: cell-based; conditions: 10 μM; for % change in yeast replicative lifespan relative to untreated organisms: 2% glucose YPD, untreated = 100%
Protocol: Average lifespan was determined for wild type untreated (□), quercetin (◯) and piceatannol (●).

C. elegans (strain N2) = test: C. elegans lifespan; assay type: in vivo; conditions: N2 worms, untreated = 100%
Protocol: Thus, the presence of resveratrol in the growth media of C. elegans extends their lifespan.
The effect of some of these compounds on lifespan was determined in yeast, C. elegans and D. melanogaster, as described above.

[2] = Table 9, resveratrol analogs, 100 μM, 25 μM NAD+, 25 μM p53-382 acetylated peptide
[3] = Supplementary Table 2, flavones part I, 100 μM, 25 μM NAD+, 25 μM p53-382 acetylated peptide
[4] = Table 1, 100 μM compound, 25 μM NAD+, 25 μM p53-382 acetylated peptide
[5] = Supplementary Table 1, stilbenes and chalcones, 100 μM, 25 μM NAD+, 25 μM p53-382 acetylated peptide
[6] = Table 13, resveratrol analogs, 100 μM, 25 μM NAD+, 25 μM p53-382 acetylated peptide
[7] = Supplementary Table 6, free radical protective compounds, 100 μM, 25 μM NAD+, 25 μM p53-382 acetylated peptide
[8] = Table 10, resveratrol analogs, 100 μM, 25 μM NAD+, 25 μM p53-382 acetylated peptide
[9] = Supplementary Table 3, flavones part II, 100 μM, 25 μM NAD+, 25 μM p53-382 acetylated peptide
[10] = Table 12, resveratrol analogs, 100 μM, 25 μM NAD+, 25 μM p53-382 acetylated peptide
[11] = Supplementary Table 7, miscellaneous compounds, 100 μM, 25 μM NAD+, 25 μM p53-382 acetylated peptide
[12] = Table 11, resveratrol analogs, 100 μM, 25 μM NAD+, 25 μM p53-382 acetylated peptide

SMILES: Oc1cc(O)cc(/C=C/c2ccc(F)cc2)c1 [BML-212, 3,5-Dihydroxy-4′-fluoro-trans-stilbene]
Ratio to Control Rate Mean ± SE (recombinant human SIRT1; [2]): 8.20 ± 0.69
half-life at 50 µM [1]: 2.75 days
% change in yeast replicative lifespan relative to untreated organisms (S. cerevisiae): 98%

SMILES: COc1ccc(/C=C/c2cc(O)cc(O)c2)cc1 [BML-233, 3,5-Dihydroxy-4′-methoxy-trans-stilbene]
Ratio to Control Rate Mean ± SE (recombinant human SIRT1): 5.48 ± 0.33
% change in C. elegans lifespan relative to untreated organisms (C. elegans (strain N2); (10) printed in the cell): 70% (10)
% change in C. elegans lifespan relative to untreated organisms (C. elegans (strain N2); (500) printed in the cell): 50% (500)

SMILES: Oc1cc(O)cc(/C=C/c2ccc(Cl)cc2)c1 [BML-217, 3,5-Dihydroxy-4′-chloro-trans-stilbene]
Ratio to Control Rate Mean ± SE (recombinant human SIRT1; [2]): 10.6 ± 0.4
% change in yeast replicative lifespan relative to untreated organisms (S. cerevisiae): 90%

SMILES: Oc1ccc(CCc2cc(O)cc(O)c2)cc1 [Dihydroresveratrol, 1-(3,5-Dihydroxyphenyl)-2-(4-hydroxyphenyl) ethane]
Ratio to Control Rate Mean ± SE (recombinant human SIRT1; [6]): 1.08 ± 0.14

SMILES: CC(C)c1ccc(/C=C/c2cc(O)cc(O)c2)cc1 [BML-231, 3,5-Dihydroxy-4′-isopropyl-trans-stilbene]
Ratio to Control Rate Mean ± SE (recombinant human SIRT1; [8]): 6.01 ± 0.15

SMILES: Oc1ccc(-c2[o+]c3cc(O)cc(O)c3cc2O)cc1.[Cl-] [Pelargonidin chloride, 3,5,7.4′-Tetrahydroxyflavylium chloride]
Ratio to Control Rate Mean ± SE (recombinant human SIRT1): 1.586

SMILES: O=c1cc(-c2ccc(O)cc2)oc2cccc(O)c12 [5,4′-Dihydroxyflavone]
Ratio to Control Rate Mean ± SE (recombinant human SIRT1; [9]): 1.56 ± 0.15

SMILES: COCOc1cc(/C=C/c2ccc(SC)cc2)cc(OCOC)c1 [BML-226, 3,5-Dimethoxymethoxy-4′-thiomethyl-trans-stilbene]
Ratio to Control Rate Mean ± SE (recombinant human SIRT1; [10]): 2.316 ± 0.087

SMILES: O=C(Nc1ccccc1)c1cc(O)cc(O)c1 [BML-219, N-phenyl-(3,5-dihydroxy)benzamide]
Ratio to Control Rate Mean ± SE (recombinant human SIRT1; [6]): 0.902 ± 0.014

SMILES: Cc1ccc(/C=C/c2cc(O)cc(O)c2)cc1 [BML-228, 3,5-Dihydroxy-4′-methyl-trans-stilbene]
Ratio to Control Rate Mean ± SE (recombinant human SIRT1; [2]): 7.72 ± 0.12

SMILES: O=C(Nc1ccc(C(=O)Nc2ccc(C(=O)Nc3ccc(S(=O)(=O)O)c4cc(S(=O)(=O)O)cc(S(=O)(=O)O)c34)cc2)cc1)Nc1ccc(C(=O)Nc2ccc(C(=O)Nc3ccc(S(=O)(=O)O)c4cc(S(=O)(=O)O)cc(S(=O)(=O)O)c34)cc2)cc1 [NF279, reference compound]
Ratio to Control Rate Mean ± SE (recombinant human SIRT1; [11]): 0.0035

SMILES: O=c1cc(-c2ccc(O)cc2)oc2cc(O)ccc12 [7,4′-Dihydroxyflavone]
Ratio to Control Rate Mean ± SE (recombinant human SIRT1; [3]): 1.91 ± 0.17

SMILES: Oc1cc(O)cc(/C=C/C2CCCCC2)c1 [BML-224, (E)-1-(3,5-Dihydroxyphenyl)-2-(cyclohexyl) ethene]
Ratio to Control Rate Mean ± SE (recombinant human SIRT1; [10]): 1.297 ± 0.042

SMILES: CC(=O)Oc1cc(O)cc(/C=C/c2ccc(O)cc2)c1 [BML-227, 3,4′-Dihydroxy-5-acetoxy-trans-stilbene]
Ratio to Control Rate Mean ± SE (recombinant human SIRT1; [12]): 3.340 ± 0.093

SMILES: COc1ccc(/C=C/c2ccccc2)cc1OC [3,4-Dimethoxy-trans-stilbene]
Ratio to Control Rate Mean ± SE (recombinant human SIRT1; [10]): 1.127 ± 0.019

SMILES: CC(=O)Nc1ccc(/C=C/c2cc(O)cc(O)c2)cc1 [BML-222, 3,5-Dihydroxy-4′-acetamide-trans-stilbene]
Ratio to Control Rate Mean ± SE (recombinant human SIRT1; [10]): 1.88 ± 0.11

SMILES: CC(=O)Oc1ccc(/C=C/c2cc(O)cc(O)c2)cc1 [BML-221, 3,5-Dihydroxy-4′-acetoxy-trans-stilbene]
Ratio to Control Rate Mean ± SE (recombinant human SIRT1; [12]): 3.05 ± 0.54
half-life [1]: 21 days
% change in yeast replicative lifespan relative to untreated organisms (S. cerevisiae): 165%
% change in C. elegans lifespan relative to untreated organisms (C. elegans (strain N2); 100/500 μM, E. coli as food): >100% (ongoing)

SMILES: Cc1ccc(NC(=O)c2cccc(N(C)C)c2)cc1NC(=O)c1ccc(O)cc1 [ZM 336372, reference compound]
Ratio to Control Rate Mean ± SE (recombinant human SIRT1; Supplementary Table 8, compound at 100 μM, 25 μM NAD+, 25 μM p53-382 acetylated peptide): 3.5 ± 1.1

SMILES: O=c1c(O)c(-c2cccc(O)c2O)oc2ccc(O)cc12 [3,6,2′,3′-Tetrahydroxyflavone]
Ratio to Control Rate Mean ± SE (recombinant human SIRT1; [9]): 1.74 ± 0.27

Continued, in another order:

Ratio to Control Rate Mean ± SE (recombinant human SIRT1; [3]): 4.59 ± 0.47
Ratio to Control Rate Mean ± SE (recombinant human SIRT1; [4]): 4.59 ± 0.47
SMILES: O=c1c(O)c(-c2ccc(O)c(O)c2)oc2cc(O)cc(O)c12 [Quercetin, 3,5,7,3′,4′-Pentahydroxyflavone]
Effect on lifespan (S. cerevisiae; wild type): no significant effect

Ratio to Control Rate Mean ± SE (recombinant human SIRT1; [5]): 7.90 ± 0.50
Ratio to Control Rate Mean ± SE (recombinant human SIRT1; [4]): 7.90 ± 0.50
Stimulation of SIRT1 activity (recombinant human SIRT1; initial library screen): eight-fold
SMILES: Oc1cc(O)cc(/C=C/c2ccc(O)c(O)c2)c1 [Piceatannol, 3,5,3′,4′-Tetrahydroxy-trans-stilbene]
Effect on lifespan (S. cerevisiae; wild type): no significant effect

Ratio to Control Rate Mean ± SE (recombinant human SIRT1; [3]): 6.58
Ratio to Control Rate Mean ± SE (recombinant human SIRT1; [4]): 6.58 ± 0.69
SMILES: O=c1c(O)c(-c2ccc(O)c(O)c2)oc2cc(O)ccc12 [Fisetin, 3,7,3′,4′-Tetrahydroxyflavone]
Effect on maximum lifespan (S. cerevisiae; wild type): significantly increased
Increase of average lifespan (S. cerevisiae; wild type): 55%

Ratio to Control Rate Mean ± SE (recombinant human SIRT1; [2]): 9.95 ± 0.45
SMILES: Oc1cc(O)cc(/C=C/c2ccccc2)c1 [Pinosylvin, 3,5-Dihydroxy-trans-stilbene]
% change in yeast replicative lifespan relative to untreated organisms (S. cerevisiae): 114%

Ratio to Control Rate Mean ± SE (recombinant human SIRT1; [7]): 0.995 ± 0.019
SMILES: Cc1c(C)c2c(c(C)c1O)CCC(C)(C(=O)O)O2 (centres unmarked) [Trolox, 6-Hydroxy-2,5,7,8-tetramethylchroman-2-carboxylic acid, reference compound]

Ratio to Control Rate Mean ± SE (recombinant human SIRT1; [5]): 1.14 ± 0.29
SMILES: C(=C/c1ccccc1)/c1ccccc1 [cis-Stilbene]

Ratio to Control Rate Mean ± SE (recombinant human SIRT1; [7]): 1.150 ± 0.090
SMILES: Cl.O.O=C(O)CN(CCN(CC(=O)O)Cc1ccccc1O)Cc1ccccc1O [HBED, N,N′-Di-(2-hydroxybenzyl)ethylenediamine-N,N′-diacetic acid.HCl.H2O, reference compound]

Ratio to Control Rate Mean ± SE (recombinant human SIRT1; [9]): 1.41 ± 0.23
SMILES: O=c1cc(-c2ccccc2)oc2ccccc12 [Flavone]

Ratio to Control Rate Mean ± SE (recombinant human SIRT1; [12]): 4.060 ± 0.069
SMILES: COc1ccc(/C=C/c2cc(O)cc(O)c2)cc1O [Rhapontin aglycone, 3,5,3′Trihydroxy-4′-methoxy-trans-stilbene]

Ratio to Control Rate Mean ± SE (recombinant human SIRT1; [5]): 1.34 ± 0.17
SMILES: O=C(/C=C/c1ccccc1)c1ccccc1 [Chalcone]

SIRT1 Vmax decrease (recombinant human SIRT1; 50 μM nicotinamide, absence of resveratrol, NAD+ or p53-382 peptide varied): 30% and 36%
Ratio to Control Rate Mean ± SE (recombinant human SIRT1; [11]): 0.428
SMILES: NC(=O)c1cccnc1 [Nicotinamide, reference compound]

Ratio to Control Rate Mean ± SE (recombinant human SIRT1; [8]): 7.24 ± 0.12
SMILES: [N-]=[N+]=Nc1ccc(/C=C/c2cc(O)cc(O)c2)cc1 [BML-232, 3,5-Dihydroxy-4′-azido-trans-stilbene]
SIRT1 stimulating activity (in words) (recombinant human SIRT1; polyphenol screen): very similar SIRT1 activating properties to resveratrol

Ratio to Control Rate Mean ± SE (recombinant human SIRT1; [7]): 1.2513 ± 0.0080
SMILES: CC1=NN(c2ccccc2)C(=O)C1 [MCI-186, 3-Methyl-1-phenyl-2-pyrazolin-5-one, reference compound]

Ratio to Control Rate Mean ± SE (recombinant human SIRT1; [5]): 1.40 ± 0.37
SMILES: COc1ccc(/C=C/c2cc(O)cc(O[C@@H]3O[C@H](CO)[C@@H](O)[C@H](O)[C@H]3O)c2)cc1O [Rhapontin, 3,3′,5-Trihydroxy-4′-methoxystilbene 3-O-β-D-glucoside]

Ratio to Control Rate Mean ± SE (recombinant human SIRT1; Supplementary Table 4, isoflavones, flavanones, anthocyanidins, 100 μM, 25 μM NAD+, 25 μM p53-382 acetylated peptide): 2.28 ± 0.74
SMILES: O=c1c(-c2ccc(O)cc2)coc2cc(O)ccc12 [Daidzein, 7,4′-Dihydroxyisoflavone]
